Source: patent US11286238B2, “Melatonin derivatives, method thereof, and use thereof” (Xiamen Nuokangde Biological Technology Co., Ltd., priority 2020, dated 2022)

What was measured:
C57/B6 mice = experiment: Safety verification in vivo (body weight and diet changes); set-up: species or system mouse; settings: intraperitoneal
Method: To test a safety of Mels of Embodiment 1 in vivo, Mel, Mels, or saline was intraperitoneally injected into mice. Using C57/B6 mice (about 18 g), the mice were randomly divided into three groups: a control group, a Mel group, and a Mels group. Then, 200 μL of normal saline, Mel and Mels solution (dissolving Mel and Mels in saline containing 5% DMSO, 10 mmol/L) were respectively intraperitoneally injected into the mice. The injection process was repeated three times at days 2, 6, and 10, and body weight changes and diet changes of mice were recorded. […] In short, Mels has lower toxicity and good safety in vitro and in vivo.

mice = experiment: Sleep experiment in sodium pentobarbital mouse sleep models; format: in vivo
Method: Mouse sleep models were established by injecting 300 μL 1% sodium pentobarbital solution into mice, and then dividing the mice into three groups. Each group comprised five mice. A first group of the three groups were injected with 100 μL normal saline as a control group, a second group of the three groups were injected with 100 μL natural unmodified melatonin (Mel) solution, a concentration of Mel was 86 μM (86 μmol/L) or 860 nM (860 nmol/L), and a third group of the three groups was injected with modified melatonin (Mels) solution with the same concentration and volume as that of the second group. A sleep duration began to be recorded one minute after a loss of righting reflex, and recording ended when the righting reflex returned.

[1] = Solubility determination in water; format: physicochemical
Method: In order to evaluate solubility of a new melatonin derivative of Embodiment 1, solubility of Mel and Mels were tested. […] Therefore, the solubility of Mels is nearly 700 times (695 times) the solubility of Mel (FIG. 4). Good water solubility of Mels can greatly improve application and greatly contribute to the research of this molecule in the field of medicine and biology.

B16F10 cell lines = experiment: Cytotoxicity assay (CCK-8); format: cell-based; settings: for Effect on cell proliferation at a low concentration / Effect on cell proliferation rate at higher concentrations: B16F10, 24 hours; for Effect on cell proliferation at a low concentration: CCK-8, absorbance 450 nm; for Effect on cell proliferation rate at higher concentrations: CCK-8, 5 mM and 10 mM
Method: B16F10 cell lines were incubated into a plate with 96 wells. After cell adherence, a Mel solution with different concentrations or a Mels solution with different concentrations was respectively added to one of the 96 wells in turn. Final concentrations of the Mel solution or the Mels solution were respectively 10 μM (10 μmol/L), 100 μM (100 μmol/L), 1 mM (1 mmol/L), 5 mM (5 mmol/L), and 10 mM (10 mmol/L). After incubating for 24 hours, CCK-8 (Cell Counting Kit-8) was added into each one of the 96 wells. Absorbance of the Mel solution and the Mels solution was measured at 450 nm.

[2] = as disclosed in SCCS Opinion on MLT, 23 Mar. 2010; cited from earlier work

Structure (SMILES): COc1ccc2c(c1)c(CCNC(C)=O)cn2CCCCS(=O)(=O)[O-].[Na+] [Mels, 4-(3-(2-acetamidoethyl)-5-methoxy-1H-indol-1-yl) butane-1-sulfonate]
- Effect on body weights and diets of the mice (C57/B6 mice; 200 μL of 10 mmol/L in saline with 5% DMSO, days 2, 6 and 10, versus control group and Mel group): no significant effect
- Safety in vivo (C57/B6 mice; C57/B6 mice, 10 mmol/L, 200 μL, three injections): good safety in vivo
- Sleep time of mice (mice; mice given 300 μL 1% sodium pentobarbital, 100 μL of 86 μM or 860 nM solution injected, prolonged from 1 hour): 3 h
- Effect on sleep compared with Mel (mice; same concentration and volume as Mel (86 μM or 860 nM, 100 μL)): same effect as Mel
- solubility ([1]; in 100 mL water): 1600 mg/mL
- Solubility of Mels relative to solubility of Mel ([1]; water solubility ratio versus melatonin): 695 times
- Effect on cell proliferation at a low concentration (B16F10 cell lines): no effects on cell proliferation
- Effect on cell proliferation rate at higher concentrations (B16F10 cell lines): little affected on cell proliferation rate
- Cytotoxicity on cells compared with Mel (B16F10 cell lines; B16F10, at an even higher concentration): much smaller than that of Mel

Structure (SMILES): COc1ccc2[nH]cc(CCNC(C)=O)c2c1 [Mel, melatonin]
- Solubility in 100 mL water [2]: 0.2 g
- Effect on cell proliferation at a low concentration (B16F10 cell lines): no effects on cell proliferation
- Effect on cell proliferation rate at higher concentrations (B16F10 cell lines): affected cell proliferation rate
